From patent US12123876B2, “Antibody binding to HEG1 and use of the antibody for detection and treatment of mesothelioma” (Kanagawa Prefectural Hospital Organization, priority 2016, dated 2024)
Entries after “also recorded” stand apart in the source; their conditions may differ.

Assays:
NCI-H2452 cells = test: Cell proliferation after HEG1 knock-down, NCI-H2452; assay type: cell-based; settings: NCI-H2452, another mesothelioma cell line
HEK-293T cells = test: Cell proliferation after HEG1 siRNA, HEK-293T; assay type: cell-based; settings: which do not express HEG1
[1] = biological target: recombinant human intelectin-1 (Homo sapiens, UniProt Q8WWA0, V109D); test: Biacore inhibition of intelectin binding to diol structure; settings: inhibition of intelectin (0.5 μg/mL) binding
Sequence of recombinant human intelectin-1 (Q8WWA0 19-298 V109D): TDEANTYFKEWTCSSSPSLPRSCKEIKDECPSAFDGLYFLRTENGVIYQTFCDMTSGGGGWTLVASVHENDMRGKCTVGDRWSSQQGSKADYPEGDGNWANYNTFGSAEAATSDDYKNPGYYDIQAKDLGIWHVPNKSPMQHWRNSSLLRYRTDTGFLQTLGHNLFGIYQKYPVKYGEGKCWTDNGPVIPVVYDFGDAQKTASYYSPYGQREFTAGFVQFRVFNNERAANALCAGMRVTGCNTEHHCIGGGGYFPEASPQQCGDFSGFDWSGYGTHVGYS
Procedure: The binding between intelectin and the diol SEPHAROSE® (crosslinked, beaded-form of agarose) beads was inhibited in the presence of another compound with diol structure. An experiment was conducted in which binding of recombinant human intelectin-1 to a sensor chip including 3-Amino-1-propanediol fixed thereto via amino groups was measured by using a Biacore (GE Healthcare Bio-Sciences AB) in the presence of various compounds serially diluted, where intelectin was used with a final concentration of 0.5 μg/mL, and 10 mM HEPES buffer (pH 7.0) containing 1 mM CaCl2), 150 mM NaCl, and 0.03% TWEEN® 20 (polyethylene glycol sorbitan monolaurate, polyoxyethylenesorbitan monolaurate) was used as buffer for measurement, and the binding rate of intelectin was determined for each sample as the degree of binding of intelectin measured for a sample without addition of compound was defined as a binding rate of 100%.

SKM9-2 antibody = test: Western blot reactivity of human HEG1 fragments expressed in ACC-MESO-1 with SKM9-2 antibody; assay type: binding, mouse; settings: for Binding to SKM9-2 antibody (positive/negative): Western blot of cell lysate
Procedure: In this Example, the mesothelioma cell line ACC-MESO-1 was allowed to express a human HEG1 fragment with the endogenous HEG1 of ACC-MESO-1 knocked down, and the reactivity with the SKM9-2 antibody was examined. Subsequently, the reactivity with the antibody was tested for the epitope region through alanine scanning, and key amino acids for binding to the antibody were determined.
Gene transfer was performed with HEG1 siRNA (H9106) (SEQ ID NOs: 40, 41) and human HEG1 for the mesothelioma cell line ACC-MESO-1, and the reactivity of the SKM9-2 was examined through Western blot analysis. A full length protein (HEG1 full length) or a fragment (HEG1 3 kb, HEG1 2 kb, or HEG1 1 kb) of the human HEG1 was used. The full length human HEG1 protein, a protein having the amino acid sequence set forth in SEQ ID NO: 35, was obtained through inserting a base sequence set forth in SEQ ID NO: 34 into pFLAG-CMV1 (Sigma-Aldrich Japan K.K.) to obtain a plasmid, transforming the plasmid, and allowing the mesothelioma cell line to express the plasmid. Fragment HEG1 3 kb was obtained through inserting a fragment corresponding to a sequence from position 285, leucine, to position 1387, phenylalanine, of SEQ ID NO: 35 into pFLAG-CMV1 (Sigma-Aldrich Japan K.K.) in an in-frame manner, and allowing the mesothelioma cell line to express the resultant. HEG1 2 kb and HEG1 1 kb were obtained through allowing the mesothelioma cell line to express products similarly obtained from a fragment corresponding to a sequence from position 677, leucine, to position 1387, phenylalanine, of SEQ ID NO: 35 and a fragment corresponding to a sequence from position 992, valine, to position 1387, phenylalanine, of SEQ ID NO: 35, respectively. Each cell lysate was analyzed through Western blot with the SKM9-2 antibody.
Further, the region in exon 7 of HEG1 was analyzed in detail. […]

Row | IC50 [1] | Compound | also measured
1 | – | H2674: siRNA for human HEG1; sense SEQ ID NO: 25 CCUAUAGCCGUACAGACUACA, antisense SEQ ID NO: 26; called HEG1 siRNA in b178 (antisense UAGUCUGUACGGCUAUAGGGC; listed as RNA, chemistry not given here) | Cell proliferation (NCI-H2452 cells): suppressed cell proliferation; Cell proliferation (HEK-293T cells): not affected
2 | 800 µM | CCCC(=O)OCC(O)CO (stereo not shown) [Monobutyrin] | –
3 | ≤ 1000 µM | CCC(O)CO (stereo not shown) [1,2-Butanediol] | –
4 | ≤ 1000 µM | O=C[C@@H](O)[C@@H](O)[C@@H](O)CO [L-Ribose] | –
5 | ≤ 1000 µM | O=C[C@H](O)[C@H](O)[C@H](O)CO [D-Ribose] | –
6 | ≤ 1000 µM | OCC(O)CO [Glycerol] | –
7 | ≤ 1000 µM | O=C1O[C@H]([C@@H](O)CO)C(O)=C1O [L-Ascorbic acid] | –
8 | – | 7.6231: SEQ ID NO: 49 (SKSPSLVSLPTE) bonded to SLURPgpi (GGSKSPSLVSLPTEGG; 7.6231 - SLURPgpi (7.6231)) | Binding to SKM9-2 antibody (positive/negative) (SKM9-2 antibody): positive; Binding to SKM9-2 antibody (positive/negative) (SKM9-2 antibody; listed as fragment 7.6231): positive signal; Reaction with SKM9-2 antibody after neuraminidase treatment (SKM9-2 antibody; lysate treated with neuraminidase, listed as fragment 7.6231): disappeared; also recorded: does not react

Row | Compound | IC50 [1] | also measured
9 | CC(O)CO (stereo not shown) [1,2-Propanediol] | 900 µM | –
10 | C[C@@H](O)CO [(R)-1,2-Propanediol] | 1000 µM | –
